{
  "source": "patent EP0205025A1",
  "about": "“Fluorine derivatives of vitamin D3 and cell differentiation-inducing agents containing the same as an active ingredient” (SUMITOMO PHARMACEUTICALS COMPANY, LIMITED, priority 1985, dated 1986)",
  "key": {"HL-60 cells [1]": {"system": "HL-60 cells", "experiment": "Proliferation-suppression rate of HL-60 cells (Coulter counter)", "type": "cell-based", "conditions": "Homo sapiens, 96 h, HL-60, 4 days, relative to untreated group; for inhibition at 0.01 µM: 1x10^-8 M (column of 1α, 25-(OH)2D3 printed 1x10^8); for inhibition at 0.003 µM: 3x10^-9 M", "protocol": "An HL-60 cell fluid adjusted to a concentration of 5 x 10^4 cells/ml was incorporated with each of the agents to be tested and cultivated in a carbon dioxide incubator at 37°C for 4 days. After the cultivation, the number of cells was measured by means of a Coulter counter. The percentage of the number thus measured relative to the number of cells in an untreated group was calculated, from which the proliferation-suppression rate was obtained."}, "HL-60 cells [2]": {"system": "HL-60 cells", "experiment": "NBT reduction of HL-60 cells after treatment (TPA stimulation, microscopy)", "type": "cell-based, human", "conditions": "HL-60 treated 4 days, percentage of NBT reduction-positive cells of 200 cells", "protocol": "Thereafter, the cells were smeared onto a slide glass, subjected to giemsa staining, and the coloration of cells was examined under a microscope. The number of colored cells was measured for 200 cells, and the results were expressed in terms of the percentage of NBT reduction- positive cells."}, "HL-60 cells [3]": {"system": "HL-60 cells", "experiment": "Binding property of monoclonal antibodies (MAS 072 anti-human monocyte, OKT 9 anti-human transferrin receptor) to treated HL-60 cells, indirect fluorescent antibody technique, FACS", "type": "cell-based", "conditions": "for Binding property of monoclonal antibody MAS072 (%): anti-human monocyte antibody, control 17.0; for Binding property of monoclonal antibody OKT9 (%): anti-human transferrin receptor antibody, control 95.7", "protocol": "HL-60 cells wre treated with the agent as described above, and then stained by indirect fluorescent antibody technique using monoclonal antibodies [MAS 072 (Sera-lab) anti-human monocyte and OKT 9 (Ortho-mune) anti-human transferrin receptor] and a fluorescent antibody [FITC-anti-mouse IgG (Miles)], and the resulting fluorescence intensity was determined by FACS to obtain the binding property of the monoclonal antibody in terms of a percentage."}, "[4]": {"conditions": "1x10^-8 M (column of 1α, 25-(OH)2D3 printed 1x10^8)"}},
  "data": [
    {"smiles": "C=C1C(=CC=C2CCCC3(C)C2CCC3C(C)CCCC(C)(C)O)CC(O)CC1O", "note": "(stereo not drawn) [1α, 25-(OH)2D3, 1α, 25-dihydroxyvitamin D3]", "values": [
      {"measurement": "inhibition at 0.01 µM", "setting": "HL-60 cells [1]", "value": 66, "unit": "%"},
      {"measurement": "inhibition at 0.003 µM", "setting": "HL-60 cells [1]", "value": 47.2, "unit": "%"},
      {"measurement": "NBT reduction rate (%)", "setting": "HL-60 cells [2]; [4]", "value": 87.0, "unit": "%"},
      {"measurement": "NBT reduction rate (%)", "setting": "HL-60 cells [2]; 3x10^-9 M", "value": 48.5, "unit": "%"},
      {"measurement": "Binding property of monoclonal antibody MAS072 (%)", "setting": "HL-60 cells [3]; [4]", "value": 55.8, "unit": "%"},
      {"measurement": "Binding property of monoclonal antibody OKT9 (%)", "setting": "HL-60 cells [3]; [4]", "value": 22.6, "unit": "%"},
      {"measurement": "Binding property of monoclonal antibody OKT9 (%)", "setting": "HL-60 cells [3]; 3x10^-9 M", "value": 61.5, "unit": "%"}
    ]},
    {"smiles": "C=C1C(=CC=C2CCCC3(C)C2CCC3C(C)CCCC(C(F)(F)F)C(F)(F)F)CC(O)CC1O", "note": "(centres unmarked) [Compound A, 26,26,26,27,27,27-hexafluoro-la-hydroxyvitamin D3]", "values": [
      {"measurement": "inhibition at 0.01 µM", "setting": "HL-60 cells [1]", "value": 74.9, "unit": "%"},
      {"measurement": "inhibition at 0.003 µM", "setting": "HL-60 cells [1]", "value": 58.5, "unit": "%"},
      {"measurement": "NBT reduction rate (%)", "setting": "HL-60 cells [2]; [4]", "value": 91.5, "unit": "%"},
      {"measurement": "NBT reduction rate (%)", "setting": "HL-60 cells [2]; 3x10^-9 M", "value": 77.0, "unit": "%"},
      {"measurement": "Binding property of monoclonal antibody MAS072 (%)", "setting": "HL-60 cells [3]; [4]", "value": 79.0, "unit": "%"},
      {"measurement": "Binding property of monoclonal antibody OKT9 (%)", "setting": "HL-60 cells [3]; [4]", "value": 11.1, "unit": "%"},
      {"measurement": "Binding property of monoclonal antibody OKT9 (%)", "setting": "HL-60 cells [3]; 3x10^-9 M", "value": 16.7, "unit": "%"}
    ]}
  ]
}
